Assay results from PubChem BioAssay AID1845197 (Molecular Pharmacology Branch, DTP, NCI, 2023).

Tested on: 349418-098-R tumor spheroid viability
Assay: Anticancer human tumor 349418-098-R patient-derived lung adenocarcinoma cell line growth inhibition
Conditions: spheroids with HUVEC and MSC; for IC50: curve of first compound; for viability, T/C: stronger effect = lower value
In short: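 Complex tumor spheroids combined malignant cells with endothelial cells and mesenchymal stem cells. DNA-damaging drugs and DNA repair inhibitors were tested alone and in combination, at half-log dilutions down from clinical Cmax (top 10 microM if Cmax unknown), 0.25% DMSO final.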

[1] = second compound 30 pM, first compound 0.0316 µM
[2] = second compound 30 pM, first compound 0.1 µM
[3] = second compound 30 pM, first compound 0.316 µM
[4] = second compound 30 pM, first compound 1 µM
[5] = second compound 30 pM, first compound 3.16 µM
[6] = second compound 30 pM, first compound 10 µM
[7] = second compound 94.9 pM, first compound 0.0316 µM
[8] = second compound 94.9 pM, first compound 0.1 µM
[9] = second compound 94.9 pM, first compound 0.316 µM
[10] = second compound 94.9 pM, first compound 1 µM
[11] = second compound 94.9 pM, first compound 3.16 µM
[12] = second compound 94.9 pM, first compound 10 µM
[13] = second compound 0.0003 µM, first compound 0.0316 µM
[14] = second compound 0.0003 µM, first compound 0.1 µM
[15] = second compound 0.0003 µM, first compound 0.316 µM
[16] = second compound 0.0003 µM, first compound 1 µM
[17] = second compound 0.0003 µM, first compound 3.16 µM
[18] = second compound 0.0003 µM, first compound 10 µM
[19] = second compound 0.000949 µM, first compound 0.0316 µM
[20] = second compound 0.000949 µM, first compound 0.1 µM
[21] = second compound 0.000949 µM, first compound 0.316 µM
[22] = second compound 0.000949 µM, first compound 1 µM
[23] = second compound 0.000949 µM, first compound 3.16 µM
[24] = second compound 0.000949 µM, first compound 10 µM
[25] = second compound 0.003 µM, first compound 0.0316 µM
[26] = second compound 0.003 µM, first compound 0.1 µM
[27] = second compound 0.003 µM, first compound 0.316 µM
[28] = second compound 0.003 µM, first compound 1 µM
[29] = second compound 0.003 µM, first compound 3.16 µM
[30] = second compound 0.003 µM, first compound 10 µM
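Note: spheroids exposed to compound for 7 days before measurement.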
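Throughout, for viability, T/C: percent of vehicle control viability with 100% = DMSO-treated spheroids.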

SMILES	IC50 (second compound 30 pM)	IC50 (second compound 94.9 pM)	IC50 (second compound 0.0003 µM)	IC50 (second compound 0.000949 µM)	IC50 (second compound 0.003 µM)	viability, T/C [1]	viability, T/C [2]	viability, T/C [3]	viability, T/C [4]	viability, T/C [5]	viability, T/C [6]	viability, T/C [7]	viability, T/C [8]	viability, T/C [9]	viability, T/C [10]	viability, T/C [11]	viability, T/C [12]	viability, T/C [13]	viability, T/C [14]	viability, T/C [15]	further results
COc1ccc([C@@H](O)c2cc(-c3ncnc4cc(N5CCOCC5)ccc34)c(F)cc2Cl)nn1 + COc1cc2c(cc1O)CCNC21CSC2c3c(OC(C)=O)c(C)c4c(c3C(COC1=O)N1C(O)C3Cc5cc(C)c(OC)c(O)c5C(C21)N3C)OCO4	5.96 µM	3.85 µM	0.399 µM	< 0.0316 µM	< 0.0316 µM	97.2%	92.9%	102%	98.6%	83.3%	22.5%	105%	101%	94.2%	94.3%	56.3%	18.3%	84.1%	90.8%	60%	viability, T/C [16]: 9.13%; viability, T/C [17]: 2.15%; viability, T/C [18]: 0.54%; viability, T/C [19]: 0.44%; viability, T/C [20]: 0.79%; viability, T/C [21]: 0.24%; viability, T/C [22]: 0.35%; viability, T/C [23]: 1.2%; viability, T/C [24]: 2.19%; viability, T/C [25]: 1.61%; viability, T/C [26]: 2.06%; viability, T/C [27]: 2.65%; viability, T/C [28]: 3.97%; viability, T/C [29]: 4.18%; viability, T/C [30]: 4.47%
[2H]c1nc(C)nc([2H])c1-c1cc(NC[C@@H](C)c2cccc3c(C(=O)NC)ccnc23)ncn1 + COc1cc2c(cc1O)CCNC21CSC2c3c(OC(C)=O)c(C)c4c(c3C(COC1=O)N1C(O)C3Cc5cc(C)c(OC)c(O)c5C(C21)N3C)OCO4	> 10 µM	> 10 µM	> 10 µM	< 0.0316 µM	< 0.0316 µM	110%	98.4%	111%	107%	98.2%	105%	99%	99.5%	94.2%	107%	103%	98.7%	96.1%	93.7%	92.7%	viability, T/C [16]: 93.6%; viability, T/C [17]: 88%; viability, T/C [18]: 86.2%; viability, T/C [19]: 0.58%; viability, T/C [20]: 0.76%; viability, T/C [21]: 0.46%; viability, T/C [22]: 0.58%; viability, T/C [23]: 0.39%; viability, T/C [24]: 0.49%; viability, T/C [25]: 1.52%; viability, T/C [26]: 1.57%; viability, T/C [27]: 1.35%; viability, T/C [28]: 1.29%; viability, T/C [29]: 1.6%; viability, T/C [30]: 2.34%
